Data reported in patent publication US9102638B2, “Amidobenzothiazoles and process for the preparation thereof” (COUNCIL OF SCIENTIFIC & INDUSTRIAL RESEARCH, priority 2011, dated 2015).

Experiments:
Type in all cases: cell-based
[1] = tested on: UO-31; test: In vitro cytotoxicity, NCI screen: UO-31 (Renal); details: Homo sapiens; UO-31, Renal panel, NCI protocol; read-out: GI50 values (μM conc.)
Method: (§1) The in vitro anticancer activity studies for these amidobenzothiazoles were carried out at the National Cancer Institute, Maryland, USA.
(§2) The amidobenzothiazoles have been tested against sixty human tumor cell lines derived from nine cancer types (leukemia cancer cell line, non-small cell lung cancer cell line, colon cancer cell line, CNS cancer cell line, melanoma cancer cell line, ovarian cancer cell line, renal cancer cell line, prostate cancer cell line and breast cancer cell lines). For these compounds results are expressed in GI50 values of that particular cancer cell at micro molar (μM) concentration as per NCI protocol.

[2] = tested on: CCRF-CEM; test: In vitro cytotoxicity, NCI sixty cell line screen: CCRF-CEM (Leukemia); details: Homo sapiens, Leukemia panel, NCI protocol, read-out: GI50 values (μM conc.)
Method: as §1, §2

[3] = tested on: MDA-MB-468; test: In vitro cytotoxicity, NCI screen: MDA-MB-468 (Breast); details: Homo sapiens, read-out: GI50 values (μM conc.)
Method: as §1, §2

[4] = tested on: IGROV1; test: In vitro cytotoxicity, NCI screen: IGROV1 (Ovarian); details: Homo sapiens, IGROV-1; IGROV1, Ovarian panel, NCI protocol; read-out: GI50 values (μM conc.)
Method: as §1, §2

[5] = tested on: SN12C; test: In vitro cytotoxicity, NCI screen: SN12C (Renal); details: Homo sapiens, Renal panel, NCI protocol, read-out: GI50 values (μM conc.)
Method: as §1, §2

[6] = tested on: DU-145; test: In vitro cytotoxicity, NCI screen: DU-145 (Prostate); details: Homo sapiens, read-out: GI50 values (μM conc.)
Method: as §1, §2

[7] = tested on: NCI-H23; test: In vitro cytotoxicity, NCI screen: NCI-H23 (Non-small cell lung); details: Homo sapiens; NCI-H23, Non-small cell lung panel, NCI protocol; read-out: GI50 values (μM conc.)
Method: as §1, §2

[8] = tested on: COLO-205; test: In vitro cytotoxicity, NCI screen: COLO-205 (Colon); details: Homo sapiens; COLO-205, Colon panel, NCI protocol; read-out: GI50 values (μM conc.)
Method: as §1, §2

[9] = tested on: MOLT-4; test: In vitro cytotoxicity, NCI screen: MOLT-4 (Leukemia); details: Homo sapiens; MOLT-4, Leukemia panel, NCI protocol; read-out: GI50 values (μM conc.)
Method: as §1, §2

[10] = tested on: SF-268; test: In vitro cytotoxicity, NCI screen: SF-268 (CNS); details: Homo sapiens, read-out: GI50 values (μM conc.)
Method: as §1, §2

[11] = tested on: ACHN; test: In vitro cytotoxicity, NCI screen: ACHN (Renal); details: Homo sapiens, Renal panel, NCI protocol, read-out: GI50 values (μM conc.)
Method: as §1, §2

[12] = tested on: SF-539; test: In vitro cytotoxicity, NCI screen: SF-539 (CNS); details: Homo sapiens, read-out: GI50 values (μM conc.)
Method: as §1, §2

[13] = tested on: LOX IMVI; test: In vitro cytotoxicity, NCI screen: LOX IMVI (Melanoma); details: Homo sapiens, Melanoma panel, NCI protocol, read-out: GI50 values (μM conc.)
Method: as §1, §2

[14] = tested on: MDA-MB-435; test: In vitro cytotoxicity, NCI screen: MDA-MB-435 (Melanoma); details: Homo sapiens; MDA-MB-435, Melanoma panel, NCI protocol; read-out: GI50 values (μM conc.)
Method: as §1, §2

[15] = tested on: SNB-19; test: In vitro cytotoxicity, NCI screen: SNB-19 (CNS); details: Homo sapiens; SNB-19, CNS panel, NCI protocol; read-out: GI50 values (μM conc.)
Method: as §1, §2

[16] = tested on: SK-MEL-28; test: In vitro cytotoxicity, NCI screen: SK-MEL-28 (Melanoma); details: Homo sapiens; SK-MEL-28, Melanoma panel, NCI protocol; read-out: GI50 values (μM conc.)
Method: as §1, §2

[17] = tested on: HCC-2998; test: In vitro cytotoxicity, NCI screen: HCC-2998 (Colon); details: Homo sapiens; HCC-2998, Colon panel, NCI protocol; read-out: GI50 values (μM conc.)
Method: as §1, §2

[18] = tested on: SK-MEL-2; test: In vitro cytotoxicity, NCI screen: SK-MEL-2 (Melanoma); details: Homo sapiens; SK-MEL-2, Melanoma panel, NCI protocol; read-out: GI50 values (μM conc.)
Method: as §1, §2

[19] = tested on: PC-3; test: In vitro cytotoxicity, NCI screen: PC-3 (Prostate); details: Homo sapiens; PC-3, Prostate panel, NCI protocol; read-out: GI50 values (μM conc.)
Method: as §1, §2

[20] = tested on: NCI/ADR-RES; test: In vitro cytotoxicity, NCI screen: NCI/ADR-RES (Ovarian); details: Homo sapiens, Ovarian panel, NCI protocol, read-out: GI50 values (μM conc.)
Method: as §1, §2

[21] = tested on: SK-OV-3; test: In vitro cytotoxicity, NCI screen: SK-OV-3 (Ovarian); details: Homo sapiens; SK-OV-3, Ovarian panel, NCI protocol; read-out: GI50 values (μM conc.)
Method: as §1, §2

[22] = tested on: prostate cancer cell lines; test: In vitro activity against prostate cancer cell lines (panel range); details: Homo sapiens, read-out: GI50 values, range over the listed compounds and the panel
Method: as §1, §2

[23] = tested on: A498; test: In vitro cytotoxicity, NCI screen: A498 (Renal); details: Homo sapiens; A498, Renal panel, NCI protocol; read-out: GI50 values (μM conc.)
Method: as §1, §2

[24] = tested on: NCI-H522; test: In vitro cytotoxicity, NCI screen: NCI-H522 (Non-small cell lung); details: Homo sapiens; NCI-H522, Non-small cell lung panel, NCI protocol; read-out: GI50 values (μM conc.)
Method: as §1, §2

[25] = tested on: OVCAR-4; test: In vitro cytotoxicity, NCI screen: OVCAR-4 (Ovarian); details: Homo sapiens; OVCAR-4, Ovarian panel, NCI protocol; read-out: GI50 values (μM conc.)
Method: as §1, §2

[26] = tested on: HCT-116; test: In vitro cytotoxicity, NCI screen: HCT-116 (Colon); details: Homo sapiens, read-out: GI50 values (μM conc.)
Method: as §1, §2

[27] = tested on: A549/ATCC; test: In vitro cytotoxicity, NCI screen: A549/ATCC (Non-small cell lung); details: Homo sapiens, Non-small cell lung panel, NCI protocol, read-out: GI50 values (μM conc.)
Method: as §1, §2

[28] = tested on: K-562; test: In vitro cytotoxicity, NCI screen: K-562 (Leukemia); details: Homo sapiens, K562; read-out: GI50 values (μM conc.)
Method: as §1, §2

[29] = tested on: SNB-75; test: In vitro cytotoxicity, NCI screen: SNB-75 (CNS); details: Homo sapiens; SNB-75, CNS panel, NCI protocol; read-out: GI50 values (μM conc.)
Method: as §1, §2

[30] = tested on: MDA-MB-231/ATCC; test: In vitro cytotoxicity, NCI screen: MDA-MB-231/ATCC (Breast); details: Homo sapiens, Breast panel, NCI protocol, read-out: GI50 values (μM conc.)
Method: as §1, §2

[31] = tested on: KM12; test: In vitro cytotoxicity, NCI screen: KM12 (Colon); details: Homo sapiens; KM12, Colon panel, NCI protocol; read-out: GI50 values (μM conc.)
Method: as §1, §2

COc1ccc(/C=C\c2cc(OC)c(OC)c(OC)c2)cc1OCC(=O)Nc1nc2ccc(C(F)(F)F)cc2s1 [Compound 8i, N1-(6-(trifluoromethyl)-1,3-benzothiazol-2-yl)-2-{2-methoxy-5-[(Z)-2-(3,4,5-trimethoxyphenyl)-1-ethenyl]phenoxy}acetamide]
GI50 [1]: 3.59 µM
GI50 [2]: 4.27 µM
GI50 [3]: 2.16 µM
GI50 [4]: 4.48 µM
GI50 [5]: 4.43 µM
GI50 [6]: 2.51 µM
GI50 [7]: 3.9 µM
GI50 [8]: 17.1 µM
GI50 [9]: 3.75 µM
GI50 [10]: 3.85 µM
GI50 [11]: 4.82 µM
GI50 [12]: 2.66 µM
GI50 [13]: 4.01 µM
GI50 [14]: 1.84 µM
GI50 [15]: 5.03 µM
GI50 [16]: 3 µM
GI50 [17]: 4.23 µM
GI50 [18]: 3.98 µM
GI50 [19]: 4.32 µM
GI50 [20]: 2.12 µM
GI50 [21]: 3.29 µM
GI50 [22]: 0.18 to 22.9 µM
GI50 [23]: 2.81 µM
GI50 [24]: 2.89 µM
GI50 [25]: 4.66 µM
GI50 [26]: 3.29 µM
GI50 [27]: 4.46 µM
GI50 [28]: 3.3 µM
GI50 [29]: 1.58 µM
GI50 [30]: 3.38 µM
GI50 [31]: 3.14 µM

COc1ccc(/C=C\c2cc(OC)c(OC)c(OC)c2)cc1OCC(=O)Nc1nc2ccc(OC(F)(F)F)cc2s1 [Compound 8j, N1-(6-(trifluoromethoxy)-1,3-benzothiazol-2-yl)-2-{2-methoxy-5-[(Z)-2-(3,4,5-trimethoxyphenyl)-1-ethenyl]phenoxy}acetamide]
GI50 [1]: 4.37 µM
GI50 [2]: 4.12 µM
GI50 [3]: 2.3 µM
GI50 [4]: 5.64 µM
GI50 [5]: 6.42 µM
GI50 [6]: 4.11 µM
GI50 [7]: 4.39 µM
GI50 [8]: 43.3 µM
GI50 [9]: 4.21 µM
GI50 [10]: 6.01 µM
GI50 [11]: 8.31 µM
GI50 [12]: 2.28 µM
GI50 [13]: 4.77 µM
GI50 [14]: 1.93 µM
GI50 [15]: 7.08 µM
GI50 [16]: 4.57 µM
GI50 [17]: 17.1 µM
GI50 [18]: 3.29 µM
GI50 [19]: 5.12 µM
GI50 [20]: 2.7 µM
GI50 [21]: 8.42 µM
GI50 [22]: 0.18 to 22.9 µM
GI50 [23]: 3.61 µM
GI50 [24]: 3.16 µM
GI50 [25]: 5.34 µM
GI50 [26]: 3.92 µM
GI50 [27]: 6 µM
GI50 [28]: 3.43 µM
GI50 [29]: 1.56 µM
GI50 [30]: 5.16 µM
GI50 [31]: 4.48 µM

COc1ccc(/C=C/C(=O)c2cc(OC)c(OC)c(OC)c2)cc1OCC(=O)Nc1nc2ccc(OC(F)(F)F)cc2s1 [Compound 9j, N1-(6-(trifluoromethoxy)-1,3-benzothiazol-2-yl)-2-{2-methoxy-5-[(E)-3-oxo-3-(3,4,5-trimethoxyphenyl)-1-propenyl]phenoxy}acetamide]
GI50 [1]: 1.61 µM
GI50 [2]: 2.5 µM
GI50 [3]: 3.52 µM
GI50 [4]: 2.54 µM
GI50 [5]: 1.74 µM
GI50 [6]: 1.56 µM
GI50 [7]: 2.15 µM
GI50 [8]: 6.37 µM
GI50 [9]: 2.89 µM
GI50 [10]: 1.2 µM
GI50 [11]: 1.62 µM
GI50 [12]: 0.29 µM
GI50 [13]: 0.47 µM
GI50 [14]: 0.3 µM
GI50 [15]: 1.58 µM
GI50 [16]: 3.31 µM
GI50 [17]: 6.18 µM
GI50 [18]: 4.97 µM
GI50 [19]: 3.14 µM
GI50 [20]: 0.49 µM
GI50 [21]: 2.16 µM
GI50 [22]: 0.18 to 22.9 µM
GI50 [23]: 7.4 µM
GI50 [24]: 0.67 µM
GI50 [25]: 2.07 µM
GI50 [26]: 1.43 µM
GI50 [27]: 1.99 µM
GI50 [28]: 0.43 µM
GI50 [29]: 0.34 µM
GI50 [30]: 2.01 µM
GI50 [31]: 1.51 µM
